Results as given in patent US7541477B2, “Antagonists to melanin-concentrating hormone receptor comprising benzimidazole derivative as active ingredient” (Banyu Pharmaceutical Co., Ltd., priority 2002, dated 2009).
Where a name gives a salt, the structure may show the parent alone.

Molecular target: T1, human MCH-1R (Homo sapiens, UniProt Q99705)
T1 construct: expressed in transfected cells; host or cells: CHO-K1 (American Type Culture Collection), membrane preparation
Test: MCH binding inhibition assay ([125I]MCH, membranes of CHO-K1 cells expressing MCH-1R)
Details: 50 pM [125I]MCH, 25° C., 1 hour; read-out: 50% Inhibitory Concentration against MCH-Binding, IC50
Protocol: cDNA sequence encoding human MCH-1R [FEBS Letters, 398:253(1996), Biochimica et Biophisica Acta, 1401: 216(1998)] was cloned into plasmid vector pEF/mic/cyto (Invitrogen). The expression vector so obtained was transfected into host cells CHO-K1 (American Type Culture Collection) by using Lipofectamine Plus Reagent (Life Technologies) to give MCH-1R expressing cells.
Membrane preparation generated from the cells expressing MCH-1R was incubated together with a test compound and 50 pM [^125I]MCH (NEN) in assay buffer (50 mM Tris buffer, pH7.4, containing 10 mM magnesium chloride, 2 mM ethylenediaminetetraacetic acid, 0.01% Bacitracin and 0.2% bovine serum albumin) at 25° C. for 1 hour, then filtered through a glass filter GF/C (Whatman). After washing the glass filter with 50 mM Tris buffer, pH7.4, containing 10 mM magnesium chloride, 2 mM ethylenediaminetetraacetic acid and 0.04% Tween-20, radioactivity on the glass filter was measured. Nonspecific binding was measured in the presence of 1 μM human MCH and a 50% inhibitory concentration (IC50) of the test compound against specific [^125I]MCH-binding was determined.

T1 sequence (Q99705 whole entry): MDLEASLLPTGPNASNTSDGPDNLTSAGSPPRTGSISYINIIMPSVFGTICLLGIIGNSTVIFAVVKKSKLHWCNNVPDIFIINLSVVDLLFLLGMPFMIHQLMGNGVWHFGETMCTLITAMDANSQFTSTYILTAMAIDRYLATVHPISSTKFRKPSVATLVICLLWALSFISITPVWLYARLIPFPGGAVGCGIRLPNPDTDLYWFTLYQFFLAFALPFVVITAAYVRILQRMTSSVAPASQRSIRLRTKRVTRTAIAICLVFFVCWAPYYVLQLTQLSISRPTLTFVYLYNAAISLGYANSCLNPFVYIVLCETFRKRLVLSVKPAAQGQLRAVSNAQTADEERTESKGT

IC50 | Structure (SMILES)
3.3 nM | CC(C)N(C)c1nc2ccc(NC(=O)c3cnc(-c4ccc(F)cc4)cn3)cc2[nH]1 [Example 24, 5-(4-Fluorophenyl)-N-{2-[isopropyl(methyl)amino]-1H-benzimidazol-6-yl}-2-pyrazinecarboxamide hydrochloride]
5.8 nM | CC(C)N(C)c1nc2ccc(NC(=O)CCc3ccc(C(F)(F)F)cc3)cc2[nH]1 [Example 1, N-{2-[isopropyl(methyl)amino]-1H-benzimidazol-6-yl}-3-[4-(trifluoromethyl)phenyl]propanamide]
6.2 nM | COc1ccc(-c2ccc(C(=O)Nc3ccc4nc(N(C)C(C)C)[nH]c4c3)cc2)cn1 [Example 17, N-{2-[isopropyl(methyl)amino]-1H-benzimidazol-6-yl}-4-(6-methoxy-3-pyridinyl)benzamide]
